pIC50: −log10 of the molar value.
What was measured:
CK1α = biological target: T1, CK1α (Homo sapiens, UniProt P48729+Q96SW2); experiment: Western blot, degradation of substrate protein in hPBMCs; format: cell-based; settings: Western blot, 24 hours of compound treatment, compounds tested at 50 nM and 500 nM (concentration for the table not stated)
T1 construct: effects of the compounds of the present disclosure on the expression of target proteins in cells; endogenous in cells; host or cells: human PBMCs (Milecell Biotechnologies)
T1 sequence (P48729 whole entry): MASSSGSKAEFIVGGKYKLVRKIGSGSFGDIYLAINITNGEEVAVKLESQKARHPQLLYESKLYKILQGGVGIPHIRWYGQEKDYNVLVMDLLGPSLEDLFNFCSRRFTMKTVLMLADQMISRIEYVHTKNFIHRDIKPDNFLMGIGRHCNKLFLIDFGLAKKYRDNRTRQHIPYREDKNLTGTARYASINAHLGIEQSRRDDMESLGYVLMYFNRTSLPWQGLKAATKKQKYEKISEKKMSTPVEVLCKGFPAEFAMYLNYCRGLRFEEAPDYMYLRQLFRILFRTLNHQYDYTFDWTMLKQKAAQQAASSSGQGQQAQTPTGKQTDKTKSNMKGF
T1 sequence (Q96SW2 whole entry): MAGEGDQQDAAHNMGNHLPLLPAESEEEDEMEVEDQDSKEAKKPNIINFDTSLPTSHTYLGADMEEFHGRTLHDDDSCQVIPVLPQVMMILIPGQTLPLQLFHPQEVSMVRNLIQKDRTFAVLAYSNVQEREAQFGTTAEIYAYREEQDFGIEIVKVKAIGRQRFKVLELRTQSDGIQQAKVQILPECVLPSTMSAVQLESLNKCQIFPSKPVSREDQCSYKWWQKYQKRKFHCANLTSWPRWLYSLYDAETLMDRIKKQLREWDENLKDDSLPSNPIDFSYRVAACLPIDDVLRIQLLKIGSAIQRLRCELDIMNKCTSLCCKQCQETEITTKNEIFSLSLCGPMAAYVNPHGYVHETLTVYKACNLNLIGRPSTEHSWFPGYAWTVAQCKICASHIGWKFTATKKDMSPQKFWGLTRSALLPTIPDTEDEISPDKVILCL
T1 sequence (Q16531 whole entry partner): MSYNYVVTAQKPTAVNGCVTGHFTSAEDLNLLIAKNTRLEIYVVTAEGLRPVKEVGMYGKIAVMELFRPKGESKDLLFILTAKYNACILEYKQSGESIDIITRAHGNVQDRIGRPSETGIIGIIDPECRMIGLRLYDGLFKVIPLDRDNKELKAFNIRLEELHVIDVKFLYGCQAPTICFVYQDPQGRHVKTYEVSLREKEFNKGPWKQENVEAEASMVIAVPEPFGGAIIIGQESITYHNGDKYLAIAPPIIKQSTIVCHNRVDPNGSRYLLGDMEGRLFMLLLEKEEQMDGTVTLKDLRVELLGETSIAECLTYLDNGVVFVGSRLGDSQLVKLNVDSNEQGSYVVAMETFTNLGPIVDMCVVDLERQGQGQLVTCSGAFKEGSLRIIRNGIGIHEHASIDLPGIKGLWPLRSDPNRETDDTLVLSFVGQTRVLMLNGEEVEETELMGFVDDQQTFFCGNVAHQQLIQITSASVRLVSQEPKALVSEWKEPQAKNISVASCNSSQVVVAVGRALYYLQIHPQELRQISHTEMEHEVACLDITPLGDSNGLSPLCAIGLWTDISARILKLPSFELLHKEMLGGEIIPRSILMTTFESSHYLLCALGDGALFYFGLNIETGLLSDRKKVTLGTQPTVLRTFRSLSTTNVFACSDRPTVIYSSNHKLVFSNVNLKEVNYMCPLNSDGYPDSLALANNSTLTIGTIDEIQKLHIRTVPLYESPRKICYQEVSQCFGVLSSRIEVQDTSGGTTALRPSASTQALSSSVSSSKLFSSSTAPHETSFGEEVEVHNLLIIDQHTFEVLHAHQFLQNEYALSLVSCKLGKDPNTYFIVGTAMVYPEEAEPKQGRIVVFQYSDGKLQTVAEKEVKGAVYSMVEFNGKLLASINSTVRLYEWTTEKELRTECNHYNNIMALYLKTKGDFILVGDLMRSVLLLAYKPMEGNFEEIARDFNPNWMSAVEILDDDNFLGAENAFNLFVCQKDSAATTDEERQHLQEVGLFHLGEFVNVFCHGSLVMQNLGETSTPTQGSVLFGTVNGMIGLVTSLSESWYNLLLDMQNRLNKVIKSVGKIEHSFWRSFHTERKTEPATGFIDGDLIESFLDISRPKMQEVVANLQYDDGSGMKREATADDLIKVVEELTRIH

IKZF1 = biological target: T2, IKZF1 (Homo sapiens, UniProt Q13422+Q96SW2); experiment: as above; format: cell-based; settings: Western blot, 24 hours of compound treatment, compounds tested at 50 nM and 500 nM (concentration for the table not stated)
T2 construct: effects of the compounds of the present disclosure on the expression of target proteins in cells; endogenous in cells; host or cells: human PBMCs (Milecell Biotechnologies)
T2 sequence (Q13422 whole entry): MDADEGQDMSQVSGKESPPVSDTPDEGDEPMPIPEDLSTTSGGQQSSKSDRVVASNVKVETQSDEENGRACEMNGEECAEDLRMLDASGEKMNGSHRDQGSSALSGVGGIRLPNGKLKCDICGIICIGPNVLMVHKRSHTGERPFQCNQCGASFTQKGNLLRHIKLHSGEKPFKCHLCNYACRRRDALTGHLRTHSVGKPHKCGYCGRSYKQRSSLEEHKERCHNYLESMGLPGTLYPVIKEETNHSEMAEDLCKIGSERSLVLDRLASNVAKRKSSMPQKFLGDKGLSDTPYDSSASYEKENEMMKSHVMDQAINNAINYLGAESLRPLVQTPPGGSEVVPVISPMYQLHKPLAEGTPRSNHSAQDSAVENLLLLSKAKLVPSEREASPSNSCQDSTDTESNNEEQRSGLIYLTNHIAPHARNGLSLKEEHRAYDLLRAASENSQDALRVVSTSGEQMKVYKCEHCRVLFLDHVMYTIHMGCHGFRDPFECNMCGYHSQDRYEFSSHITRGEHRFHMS
T2 sequence (Q96SW2 whole entry): as the sequence (Q96SW2 whole entry) above
T2 sequence (Q16531 whole entry partner): as the sequence (Q16531 whole entry partner) above

IKZF2 = biological target: T3, IKZF2 (Homo sapiens, UniProt Q96SW2+Q9UKS7); experiment: as above; format: cell-based; settings: Western blot, 24 hours of compound treatment, compounds tested at 50 nM and 500 nM (concentration for the table not stated)
T3 construct: effects of the compounds of the present disclosure on the expression of target proteins in cells; endogenous in cells; host or cells: human PBMCs (Milecell Biotechnologies)
T3 sequence (Q9UKS7 whole entry): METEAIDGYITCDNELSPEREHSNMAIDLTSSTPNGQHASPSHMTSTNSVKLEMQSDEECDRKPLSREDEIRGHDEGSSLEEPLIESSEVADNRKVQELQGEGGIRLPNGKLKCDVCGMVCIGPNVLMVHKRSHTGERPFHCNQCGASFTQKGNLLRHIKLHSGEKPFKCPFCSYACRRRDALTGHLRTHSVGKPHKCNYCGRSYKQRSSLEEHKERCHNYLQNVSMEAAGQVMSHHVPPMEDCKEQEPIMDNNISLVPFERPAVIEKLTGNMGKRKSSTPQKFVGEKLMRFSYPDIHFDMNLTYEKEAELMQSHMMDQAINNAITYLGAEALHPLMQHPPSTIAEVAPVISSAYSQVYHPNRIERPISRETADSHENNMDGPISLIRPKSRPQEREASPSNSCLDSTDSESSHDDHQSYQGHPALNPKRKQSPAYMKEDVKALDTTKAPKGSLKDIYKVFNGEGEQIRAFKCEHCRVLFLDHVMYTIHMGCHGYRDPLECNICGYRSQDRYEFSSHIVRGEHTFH
T3 sequence (Q96SW2 whole entry): as the sequence (Q96SW2 whole entry) above
T3 sequence (Q16531 whole entry partner): as the sequence (Q16531 whole entry partner) above

IKZF3 = biological target: T4, IKZF3 (Homo sapiens, UniProt Q96SW2+Q9UKT9); experiment: as above; format: cell-based; settings: Western blot, 24 hours of compound treatment, compounds tested at 50 nM and 500 nM (concentration for the table not stated)
T4 construct: effects of the compounds of the present disclosure on the expression of target proteins in cells; endogenous in cells; host or cells: human PBMCs (Milecell Biotechnologies)
T4 sequence (Q9UKT9 whole entry): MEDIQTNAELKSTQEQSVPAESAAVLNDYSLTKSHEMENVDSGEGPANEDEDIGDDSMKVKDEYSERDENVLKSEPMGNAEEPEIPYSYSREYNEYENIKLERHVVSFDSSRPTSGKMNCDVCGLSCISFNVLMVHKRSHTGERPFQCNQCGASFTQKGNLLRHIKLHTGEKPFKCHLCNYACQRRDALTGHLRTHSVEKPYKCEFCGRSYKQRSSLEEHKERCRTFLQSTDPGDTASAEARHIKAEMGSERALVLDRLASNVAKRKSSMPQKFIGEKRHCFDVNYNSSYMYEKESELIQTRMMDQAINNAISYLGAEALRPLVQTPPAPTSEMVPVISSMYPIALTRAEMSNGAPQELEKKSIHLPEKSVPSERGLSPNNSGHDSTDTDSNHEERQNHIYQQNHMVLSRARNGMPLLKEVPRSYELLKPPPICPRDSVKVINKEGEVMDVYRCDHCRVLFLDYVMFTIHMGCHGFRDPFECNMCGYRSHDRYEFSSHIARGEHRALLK
T4 sequence (Q96SW2 whole entry): as the sequence (Q96SW2 whole entry) above
T4 sequence (Q16531 whole entry partner): as the sequence (Q16531 whole entry partner) above

WEE1 = biological target: T5, WEE1 (Homo sapiens, UniProt P30291+Q96SW2); experiment: as above; format: cell-based; settings: Western blot, 24 hours of compound treatment, compounds tested at 50 nM and 500 nM (concentration for the table not stated)
T5 construct: effects of the compounds of the present disclosure on the expression of target proteins in cells; endogenous in cells; host or cells: human PBMCs (Milecell Biotechnologies)
T5 sequence (P30291 whole entry): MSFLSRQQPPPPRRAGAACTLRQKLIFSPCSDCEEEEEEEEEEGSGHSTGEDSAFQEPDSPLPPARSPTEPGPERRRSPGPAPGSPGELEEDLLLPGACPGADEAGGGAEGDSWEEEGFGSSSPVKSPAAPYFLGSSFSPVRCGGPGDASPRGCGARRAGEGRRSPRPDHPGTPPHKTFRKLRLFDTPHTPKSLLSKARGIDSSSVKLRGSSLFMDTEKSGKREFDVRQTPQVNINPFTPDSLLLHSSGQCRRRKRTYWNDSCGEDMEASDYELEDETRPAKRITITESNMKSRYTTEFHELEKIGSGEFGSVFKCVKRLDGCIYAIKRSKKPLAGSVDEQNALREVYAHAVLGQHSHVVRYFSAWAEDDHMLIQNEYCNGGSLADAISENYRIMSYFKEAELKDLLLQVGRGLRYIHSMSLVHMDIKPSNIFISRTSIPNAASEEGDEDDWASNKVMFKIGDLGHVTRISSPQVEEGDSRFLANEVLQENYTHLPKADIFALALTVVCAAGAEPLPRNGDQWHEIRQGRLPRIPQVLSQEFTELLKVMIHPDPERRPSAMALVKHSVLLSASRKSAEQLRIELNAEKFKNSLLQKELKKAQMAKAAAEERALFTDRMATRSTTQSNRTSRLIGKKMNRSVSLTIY
T5 sequence (Q96SW2 whole entry): as the sequence (Q96SW2 whole entry) above
T5 sequence (Q16531 whole entry partner): as the sequence (Q16531 whole entry partner) above

GSPT1 = experiment: as above; format: cell-based, Human; settings: Western blot, 24 hours of compound treatment, compounds tested at 50 nM and 500 nM (concentration for the table not stated)
[1] = biological target: T6, human Cereblon WT GST-tagged protein (Homo sapiens, UniProt Q96SW2); experiment: CRBN-binding affinity, HTRF (CEREBLON BINDING kit); settings: for inhibition at 0.5 µM: read-out: Inhibition Rate at 0.5 µM (%); for inhibition at 2 µM: read-out: Inhibition Rate at 2 µM (%)
T6 construct: purchased CISBIO 64BDCRBNPEH
T6 sequence (Q96SW2 whole entry): as the sequence (Q96SW2 whole entry) above

Structure (SMILES) | pIC50 ([1]; CRBN binding, HTRF, 3 hours at room temperature, read-out: HTRF IC50) | inhibition at 0.5 µM [1] [%] | inhibition at 2 µM [1] [%] | CK1α substrate protein remaining % (CK1α) | IKZF 1 substrate protein remaining % (IKZF1) | IKZF2 substrate protein remaining % (IKZF2) | IKZF3 substrate protein remaining % (IKZF3) | Wee1 substrate protein remaining % (WEE1) | GSPT1 substrate protein remaining % (GSPT1)
O=C1CCC(N2Cc3c(CN4CCCN(c5cccc(Cl)c5Cl)CC4)cccc3C2=S)C(=O)N1 (centres unmarked) [GT-08472, 3-(4-((4-(2,3-dichlorophenyl)-1,4-diazepan-1-yl)methyl)-1-thioxoisoindolin-2-yl)piperidine-2,6-dione] |  | 40 to 53 | 80 to 100 | B (80%< substrate protein remaining %≤ 100%) | B (80%< substrate protein remaining %≤ 100%) | B (80%< substrate protein remaining %≤ 100%) | B (80%< substrate protein remaining %≤ 100%) | B (80%< substrate protein remaining %≤ 100%) | A (0% ≤ substrate protein remaining % ≤ 80%)
O=C1CCC(N2Cc3c(CN4CC=C(c5ccnc(Cl)c5Cl)CC4)cccc3C2=S)C(=O)N1 (centres unmarked) [GT-08462, 3-(4-((2',3'-dichloro-3,6-dihydro-[4,4'-bipyridin]-1(2H)-yl)methyl)-1-thioxoisoindolin-2-yl)piperidine-2,6-dione] |  | 60 to 80 | 80 to 100 | B (80%< substrate protein remaining %≤ 100%) | B (80%< substrate protein remaining %≤ 100%) | B (80%< substrate protein remaining %≤ 100%) | B (80%< substrate protein remaining %≤ 100%) | A (0% ≤ substrate protein remaining % ≤ 80%) | B (80%< substrate protein remaining %≤ 100%)
O=C1CCC(N2Cc3c(CN4CCC(N(c5ccccc5)c5ccccc5)CC4)cccc3C2=S)C(=O)N1 (centres unmarked) [GT-08209, 3-(4-((4-(diphenylamino)piperidin-1-yl)methyl)-1-thioxoisoindolin-2-yl)piperidine-2,6-dione] |  | 60 to 80 | 80 to 100 | B (80%< substrate protein remaining %≤ 100%) | B (80%< substrate protein remaining %≤ 100%) | B (80%< substrate protein remaining %≤ 100%) | B (80%< substrate protein remaining %≤ 100%) | A (0% ≤ substrate protein remaining % ≤ 80%) | A (0% ≤ substrate protein remaining % ≤ 80%)

Second part, led by results:

pIC50 ([1]; CRBN binding, HTRF, 3 hours at room temperature, read-out: HTRF IC50) | inhibition at 0.5 µM [1] [%] | inhibition at 2 µM [1] [%] | Structure (SMILES) | CK1α substrate protein remaining % (CK1α) | IKZF 1 substrate protein remaining % (IKZF1) | IKZF2 substrate protein remaining % (IKZF2) | IKZF3 substrate protein remaining % (IKZF3) | Wee1 substrate protein remaining % (WEE1) | GSPT1 substrate protein remaining % (GSPT1)
6.00 to 6.30 |  |  | CC1(C)CCC(CN2CCN(Cc3ccc4c(c3)CN(C3CCC(=O)NC3=O)C4=S)CC2)=C(c2ccc(Cl)cc2)C1 (centres unmarked) [GT-05151, 3-(5-((4-((4'-chloro-5,5-dimethyl-3,4,5,6-tetrahydro-[1,1'-biphenyl]-2-yl)methyl)piperazin-1-yl)methyl)-1-thioxoisoindolin-2-yl)piperidine-2,6-dione] | B (80%< substrate protein remaining %≤ 100%) | A (0% ≤ substrate protein remaining % ≤ 80%) | A (0% ≤ substrate protein remaining % ≤ 80%) | A (0% ≤ substrate protein remaining % ≤ 80%) | A (0% ≤ substrate protein remaining % ≤ 80%) | A (0% ≤ substrate protein remaining % ≤ 80%)
 | 60 to 80 | 80 to 100 | O=C1CCC(N2Cc3c(CN4CCN(c5ccc(F)c(F)c5)CC4)cccc3C2=S)C(=O)N1 (centres unmarked) [GT-08631, 3-(4-((4-(3,4-difluorophenyl)piperazin-1-yl)methyl)-1-thioxoisoindolin-2-yl)piperidine-2,6-dione] | B (80%< substrate protein remaining %≤ 100%) | B (80%< substrate protein remaining %≤ 100%) | B (80%< substrate protein remaining %≤ 100%) | B (80%< substrate protein remaining %≤ 100%) | A (0% ≤ substrate protein remaining % ≤ 80%) | B (80%< substrate protein remaining %≤ 100%)
 | 60 to 80 | 80 to 100 | O=C1CCC(N2Cc3cc(CN4CCN(c5cc(F)ccc5F)CC4)ccc3C2=S)C(=O)N1 (centres unmarked) [GT-08625, 3-(5-((4-(2,5-difluorophenyl)piperazin-1-yl)methyl)-1-thioxoisoindolin-2-yl)piperidine-2,6-dione] | A (0% ≤ substrate protein remaining % ≤ 80%) | B (80%< substrate protein remaining %≤ 100%) | B (80%< substrate protein remaining %≤ 100%) | B (80%< substrate protein remaining %≤ 100%) | B (80%< substrate protein remaining %≤ 100%) | A (0% ≤ substrate protein remaining % ≤ 80%)

— patent publication EP4745135A1 (Gluetacs Therapeutics (Shanghai) Co., Ltd., priority 2023, dated 2025)
